Assay results from patent US11142524B2, “Substituted-3H-imidazo[4,5-c]pyridine and 1H-pyrrolo[2,3-c]pyridine series of novel Ectonucleotide Pyrophosphatase/Phosphodiesterase-1 (ENPP1) and stimulator for interferon genes (STING) modulators as cancer immunotherapeutics” (Stingray Therapeutics, Inc., priority 2018, dated 2021).
pIC50: −log10 of the molar value.

Legend:
[1] = molecular target: Recombinant Human ENPP-2/Autotaxin Protein (Homo sapiens (Human), UniProt Q13822); test: ENPP2 Inhibition Assay; assay type: biochemical
Experimental: Assay Buffer: 10 mM CaCl2, 5 mM MgCl2, 50 mM Tris, 0.02% Brij-35, pH 8.5. Substrate: 2 mM Bis(p-Nitrophenyl) Phosphate Sodium Salt (Sigma Cat # N3002). Enzyme: 0.2 ng/μL Recombinant Human ENPP-2/Autotaxin Protein (R&D Cat #5255-EN), PF-3080 in DMSO in 96-well clear assay plates
(§1) An eight point serial dilution of drugs was prepared in 10× in assay buffer with the final assay concentrations starting at 10 μM, 3 μM, 1 μM, 0.3 μM . . . 0 μM. A dilution of DMSO was included as a control. The assay plate was set up as follows with each well in duplicate: 15 μL assay buffer+10 μL ENPP1 inhibitor or DMSO+50 μL Substrate+25 μL Enzyme. Both the enzyme and substrate were added to opposite sides of the well to ensure that there was no interaction until all wells had both components. The plate was then centrifuged gently for 10 seconds, followed by an incubation at 37° C. for 45 minutes. The reaction was quantified by measuring absorbance at 405 nm using the Envision.
IC50 values are determined using GraphPad Prism 5 software. The data were entered as an X-Y plot into the software as percent inhibition for each concentration of the drug. The concentration values of the drug were log transformed and the nonlinear regression was carried out using the “sigmoidal dose-response (variable slope)” option within the GraphPad software to model the data and calculate IC50 values. The IC50 values reported are the concentration of drug at which 50% inhibition was reached.

[2] = tested on: Saos-2 Cells; test: ENPP1 Mineralization Assay; assay type: cell-based; conditions: FIG. 9, mineralization components for 3 days
[3] = molecular target: T1, Recombinant Human ENPP-1 Protein (purified in-house) (Homo sapiens (Human), UniProt P22413); test: ENPP1 Assay (TMP), Example 2; assay type: biochemical
Experimental: Enzyme: 1 ng/μL Recombinant Human ENPP-1 Protein (purified in-house)—Assay Conc.: 5 ng/well of DMSO in 96-well clear assay plates.
as §1, with “A ten” for “An eight”, “75” for “15”, “DMSO Dilutions+10” for “DMSO+50”, “Substrate+5” for “Substrate+25”, “Enzyme (5 ng).” for “Enzyme.”, “Envision Plate Reader.” for “Envision.”

[4] = molecular target: T1, Recombinant Human ENPP-1 Protein (purified in-house); test: ENPP1 Assay (ATP), Example 2; assay type: biochemical
Experimental: Assay Buffer: 1 mM CaCl2, 0.2 mM ZnCl2, 50 mM Tris, pH 9.0. Substrate: 100 μM Adenosine 5′-triphosphate disodium salt hydrate (Promega: V703A)—Assay Conc.: 10 μM. Enzyme: 1 ng/μL Recombinant Human ENPP-1 Protein (purified in-house)—Assay Conc.: 5 ng/well of DMSO in 96-well white assay plates. Cell Titer Glo (Promega, cat #G7572).
A ten point serial dilution of drugs was prepared in 10× in assay buffer with the final assay concentrations starting at 10 μM, 3 μM, 1 μM, 0.3 μM . . . 0 μM. A dilution of DMSO was included as a control. The assay plate was set up as follows with each well in duplicate: 75 μL assay buffer+10 μL ENPP1 inhibitor or DMSO Dilutions+10 μL Substrate+5 μL Enzyme (5 ng). Both the enzyme and substrate were added to opposite sides of the well to ensure that there was no interaction until all wells had both components. The plate was then centrifuged gently for 10 seconds, followed by incubation at RT for 20 minutes. To detect levels of ATP, Cell Titer Glo was added 1:1 to each well and incubated for 10 minutes. The reaction was quantified by measuring luminescence using the Envision Plate Reader.

[5] = tested on: UWB1.289; test: Chou-Talalay Synergy Study with Olaparib, UWB1.289; assay type: cell-based; conditions: UWB1.289, 72 hours
Experimental: Cell Lines: MDA-MB-468 and UWB289.1 (ATCC). Cell Titer Glo (Promega cat #: G7572). 96-well TC treated, white assay plates
Cells were cultured according to ATCC tissue culture recommendations. Cells were plated in a 96-well tissue culture plate at a density of 1500 cells/well and allowed to settle overnight. The following day, both drugs were prepared at 10× concentration in the following ratios (Compound 22:Olaparib): 1:1, 10:1, and 1:10. The drugs were serially diluted to create an 8-point dose curve and 10 μL of each drug was added to the cells for a total volume of 100 μL/well. Plates were placed in a tissue culture incubator for 72 hours. Following incubation, each plate was treated with Cell Titer Glo according to vendor recommendation and luminescence was measured with the Envision Plate Reader. Data was analyzed using CalcuSyn software according to the methods described in Chou, Drug combination studies and their synergy quantification using the Chou-Talalay method, Cancer Res. 2010 Jan. 15; 70(2):440-6.
A Combination index (CI) value greater than 1 indicates […], equal to 1 indicates additive and less than 1 indicates synergy.

T1 sequence (P22413 whole entry, looked up): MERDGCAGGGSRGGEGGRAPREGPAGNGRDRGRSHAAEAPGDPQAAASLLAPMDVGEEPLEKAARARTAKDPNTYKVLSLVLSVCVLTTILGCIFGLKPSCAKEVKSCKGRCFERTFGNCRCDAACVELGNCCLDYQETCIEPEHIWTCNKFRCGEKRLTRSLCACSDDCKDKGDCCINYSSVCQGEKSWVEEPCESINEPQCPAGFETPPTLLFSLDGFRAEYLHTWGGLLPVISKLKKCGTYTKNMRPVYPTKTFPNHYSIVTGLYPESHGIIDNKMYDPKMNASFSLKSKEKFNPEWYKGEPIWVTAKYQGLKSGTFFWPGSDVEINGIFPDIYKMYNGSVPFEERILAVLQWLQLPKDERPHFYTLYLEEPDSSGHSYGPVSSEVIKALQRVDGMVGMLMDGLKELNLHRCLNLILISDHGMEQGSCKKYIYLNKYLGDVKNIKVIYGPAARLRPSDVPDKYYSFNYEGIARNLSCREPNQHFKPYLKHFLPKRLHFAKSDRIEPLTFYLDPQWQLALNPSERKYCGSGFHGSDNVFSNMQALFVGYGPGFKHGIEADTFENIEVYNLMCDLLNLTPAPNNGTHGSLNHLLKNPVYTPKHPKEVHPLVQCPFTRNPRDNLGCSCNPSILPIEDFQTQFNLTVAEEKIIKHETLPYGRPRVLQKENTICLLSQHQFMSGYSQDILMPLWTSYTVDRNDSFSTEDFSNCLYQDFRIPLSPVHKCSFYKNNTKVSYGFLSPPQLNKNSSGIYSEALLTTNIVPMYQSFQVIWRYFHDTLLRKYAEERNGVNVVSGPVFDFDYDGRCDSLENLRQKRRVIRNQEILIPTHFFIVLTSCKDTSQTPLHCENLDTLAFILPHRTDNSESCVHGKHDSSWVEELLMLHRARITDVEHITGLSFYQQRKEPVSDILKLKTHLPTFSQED

selective at inhibiting ENPP1 but not ENPP2 [1]: selective | inhibiting the activity of ENPP2 ([1]; FIGS. 2A and 2B): ineffective | pIC50 ([3]; FIG. 5A, TMP substrate, read-out: IC50): 6.57 | IC50 ([3]; Table 5, TMP substrate, read-out: ENPP1 (IC50 μM) TMP): 0.271 µM | pIC50 ([4]; FIG. 5B, ATP substrate, read-out: IC50): 7.14 | IC50 ([4]; Table 5, ATP substrate, read-out: ENPP1 (IC50 μM) ATP): 0.116 µM
Structure (SMILES): COc1ccc(NC(=O)CSc2nc3c(C)c(C#N)ncc3[nH]2)cc1O [Compound 78, 2-((6-Cyano-7-methyl-3H-imidazo[4,5-c]pyridin-2-yl)thio)-N-(3-hydroxy-4-methoxyphenyl) acetamide]
total mineralization [2]: significant decrease | ED50 Drug Concentration Compound 78 [5]: 48800 nM
